According to patent US10905738B2, “Synthetic peptides, prodrugs, pharmaceutical compositions and uses” (Biozeus Desenvolvimento De Produtos Biofarmacêuticos, priority 2018, dated 2021):

Tests used:
[1] = test system: smooth muscle of tracheal rings; experiment: spasmodic contraction of tracheal rings ex vivo (histamine-induced); set-up: species or system Dunkin-Hartley guinea pigs; conditions: for relaxing effect on airway (tracheal ring) smooth muscle, in words: histamine-induced contraction ex vivo; for Effectiveness (Emax) (%): relaxation of tracheal rings contracted by histamine (50 μM); for Effectiveness (Emax) (%) / Potency (pEC50) Molar: mean±SEM; for Potency (pEC50) Molar: tracheal rings contracted by histamine (50 μM), peptides 0.01 to 10 μM
Experimental: The magnitude of the relaxing effect of the peptides was evaluated by means of a model of spasmodic contraction of tracheal rings ex vivo, largely employed to test new bronchodilating agents (see CULLUM, V. A., FARMER, J. B., JACK, D., LEVY, G. P. Salbutamol: a new, selective β-adrenoceptive receptor stimulant. British journal of pharmacology, 35(1): 141-151. 1969; KAO, C. H., CHU, Y. H., WANG, H. W. Effects of lidocaine on rat's isolated tracheal smooth muscle. European Archives of Oto-Rhino-Laryngology, 267(5): 817-820. 2010; SORIANO-URSÚA, M. A., VALENCIA-HERNÁNDEZ, I., ARELLANO-MENDOZA, M. G., CORREA-BASURTO, J., TRUJILLO-FERRARA, J. G. Synthesis, pharmacological and in silico evaluation of 1-(4-dihydroxy-3, 5-dioxa-4-borabycyclo [4.4.0] deca-7,9,11-trien-9-yl)-2-(tert-butylamine) ethanol, a compound designed to act as a β2 adrenoceptor agonist. European journal of medicinal chemistry, 44(7): 2840-2846. 2009).
For each test, Dunkin-Hartley guinea pigs (400-500 g) were euthanized in a CO2 atmosphere; subsequently, the trachea was exposed, removed and sectioned in segments of 1 to 3 cartilaginous tracheal rings. Each segment was transferred to an individual organ bath system containing Krebs nutritive solution (NaCl 118 mM; KCl […]; CaCl2) 2.5 mM; MgSO4 1.2 mM; KH2PO4 1.2 mM; NaHCO324 mM; glucose 11 mM) at 37° C., under constant aeration with a carbogenic mixture (95% of O2 and 5% of CO2). In each system, a stem fixed to the base of the container and another connected to an isometric transducer (GRASS FT-03) made up the support of the fragments. A data digitizing system connected to the isometric transducer allowed the recording of tension variations produced by the contraction of the tracheal rings (PowerLab™ 16/30, LabChart, version 8.1, AD Instruments, Australia). The basal tension was adjusted to 1 g, and subsequently, the contractility of the fragments was evaluated by a stimulus with carbachol (2.5 μM). After 1 h at rest, the basal tension was recovered and the tissues were subjected to contraction induced by histamine (50 μM) followed by exposure to increasing concentrations of the treatments (0.01 to 10 μM; n=8) or the comparator PnTx(19).
Table 1 lists the mean±SEM of the potency values, shown as the negative logarithm of the concentration that reduced the voltage to 50% of the maximum Histamine-induced contraction (pEC50), and efficacy (Emax), calculated from at least 8 independent tests using the sigmoid nonlinear regression equation of the software Graph Prism 5.0 (GraphPad Software, La Jolla, Ca, USA).

[2] = test system: smooth muscle of pulmonary arteries; experiment: relaxation of pulmonary arteries contracted with phenylephrine ex vivo; set-up: species or system male Wistar rats; conditions: n = 9; for pEC50: pulmonary arteries contracted with phenylephrine, peptides 1 nM-10 μM, mean±SEM; for Effectiveness (Emax) (%): relaxation percentage related to maximum phenylephrine contraction
From the text: The ex vivo model of pulmonary artery smooth muscle contraction with phenylephrine is very useful to screen candidate compounds for lung diseases that demand vasodilating effects (ALENCAR, A. K., PEREIRA, S. L., MONTAGNOLI, T. L., MAIA, R. C., KUMMERLE, A. E., LANDGRAF, S. S., CARUSO-NEVES, C., FERRAZ, E. B., TESCH, R., NASCIMENTO, J. H., DE SANT'ANNA, C. M., FRAGA, C. A., BARREIRO, E. J., SUDO, R. T., ZAPATA-SUDO, G. Beneficial effects of a novel agonist of the adenosine A2A receptor on monocrotaline-induced pulmonary hypertension in rats. Br J Pharmacol, 169: 953-62. 2013).
Rats were anesthetized with midazolam and ketamine (2 mg/kg and 100 mg/kg, respectively) via intraperitoneal administration. After infusion of a lethal dose of sodium thiopental via intraperitoneal administration (50 mg/kg), the trunk of the pulmonary artery was carefully removed via sternotomy. The pulmonary artery was carefully dissected and the connective tissue removed. The arteries were connected to a force transductor, positioned in vertical chambers filled with Krebs solution, oxygenated and kept at 37° C.
After a stabilization period of 2 hours at a tension of 1.5 grams, the arteries were exposed to increasing doses of phenylephrine (1 nM-10 μM) in order to obtain maximum smooth muscle contraction and then exposed to increasing doses of selected peptides in the concentrations of 1 nM-10 μM each (n=9). The tension generated by the pulmonary artery was evaluated at intervals of 5 minutes for each dose (ALENCAR, A. K., PEREIRA, S. L., MONTAGNOLI, T. L., MAIA, R. C., KUMMERLE, A. E., LANDGRAF, S. S., CARUSO-NEVES, C., FERRAZ, E. B., TESCH, R., NASCIMENTO, J. H., DE SANT'ANNA, C. M., FRAGA, C. A., BARREIRO, E. J., SUDO, R. T., ZAPATA-SUDO, G. Beneficial effects of a novel agonist of the adenosine A2A receptor on monocrotaline-induced pulmonary hypertension in rats. Br J Pharmacol 169: 953-62. 2013; ALENCAR, A. K., PEREIRA, S. L., DA SILVA, F. E., MENDES, L. V., CUNHA VDO, M., LIMA, L. M., MONTAGNOLI, T. L., CARUSO-NEVES, C., FERRAZ, E. B., TESCH, R., NASCIMENTO, J. H., SANT'ANNA, C. M., FRAGA, C. A., BARREIRO, E. J., SUDO, R. T., ZAPATA-SUDO, G. N-acylhydrazone derivative ameliorates monocrotaline-induced pulmonary hypertension through the modulation of adenosine AA2R activity. International Journal of Cardiology, 173(2): 154-62. 2014).
Potency values are shown as the negative logarithm of the concentration that reduced the voltage to 50% of the maximum phenylephrine-induced contraction (pEC50), and they are expressed as mean±SEM. The maximum contraction achieved in a given artery was considered to be 100% of contraction, and the effectiveness (Emax) was expressed as the relaxation percentage related to this maximum value. The results were calculated from at least 3 independent tests using the sigmoid non-linear regression equation, and the statistical analysis of the concentration curve was done by performing a nonlinear fit of the logarithmic of the agonist versus response. All the above calculations were performed on the software Graph Prism 5.0 (GraphPad Software, La Jolla, Calif., USA). Tension analysis was performed on the software LabChart7 (AD Instruments, Sydney, Australia). As a cutoff to determine biological significance, we considered pulmonary artery relaxation values above 30% as biologically relevant, considered those as active and then calculated the Emax values (SUN, C. K., LIN, Y. C., YUEN, C. M., CHUA, S., CHANG, L. T., SHEU, J. J., LEE, F. Y., FU, M., LEU, S., YIP, H. K. Enhanced protection against pulmonary hypertension with sildenafil and endothelial progenitor cell in rats. International journal of cardiology, 162(1): 45-58. 2012; ALENCAR, A. K., PEREIRA, S. L., DA SILVA, F. E., MENDES, L. V., CUNHA VDO, M., LIMA, L. M., MONTAGNOLI, T. L., CARUSO-NEVES, C., FERRAZ, E. B., TESCH, R., NASCIMENTO, J. H., SANT'ANNA, C. M., FRAGA, C. […]

Substance | relaxing effect on airway (tracheal ring) smooth muscle, in words [1] | Effectiveness (Emax) (%) [1] | Potency (pEC50) Molar [1] | pEC50 [2] | Effectiveness (Emax) (%) [2]
AQYFWIAWYKLANSK [SEQ ID NO: 4, Ac-Ala-Gln-Tyr-Phe-Trp-Ile-Ala-Trp-Tyr-Lys-Leu-Ala-Asn-Ser-Lys-NH2] | effective | 38.8 ± 3.5% | 6.8 ± 0.3 Molar |  | 
IAWYKGGGGGIAWYK [SEQ ID NO: 28, Ac-Ile-Ala-Trp-Tyr-Lys-Gly-Gly-Gly-Gly-Gly-Ile-Ala-Trp-Tyr-Lys-NH2] |  | Inactive | Inactive |  | 
IAWYKGGGGGIAWYKGGGGGIAWYK [SEQ ID NO: 30] |  | Inactive | Inactive |  | 
IAWYKRGGGGGRKYWAI [SEQ ID NO: 29, Ac-Ile-Ala-Trp-Tyr-Lys-Arg-Gly-Gly-Gly-Gly-Gly-Arg-Lys-Tyr-Trp-Ala-Ile-NH2] |  | Inactive | Inactive |  | 
QYFWIAWYKLANS [SEQ ID NO: 17, Ac-Gln-Tyr-Phe-Trp-Ile-Ala-Trp-Tyr-Lys-Leu-Ala-Asn-Ser-NH2] |  | 37.1 ± 2.6% | 6.8 ± 0.3 Molar | 7.8 ± 3.0 | 15% ± 2.6
RAYFWIAWYKLANSK [SEQ ID NO: 1, Ac-Arg-Ala-Tyr-Phe-Trp-Ile-Ala-Trp-Tyr-Lys-Leu-Ala-Asn-Ser-Lys-NH2] | effective | 45.7 ± 4.3% | 7.1 ± 0.4 Molar |  | 
RQAFWIAWYKLANSK [SEQ ID NO: 3, Ac-Arg-Gln-Ala-Phe-Trp-Ile-Ala-Trp-Tyr-Lys-Leu-Ala-Asn-Ser-Lys-NH2] | effective | 36.7 ± 1.9% | 6.8 ± 0.2 Molar |  | 
RQYFWIAW [SEQ ID NO: 22, Ac-Arg-Gln-Tyr-Phe-Trp-Ile-Ala-Trp-NH2] |  | 35.2 ± 1.8% | 7.0 ± 0.2 Molar | 5.8 ± 3.1 | 8% ± 2.83
RQYFWIAWY [SEQ ID NO: 20, Ac-Arg-Gln-Tyr-Phe-Trp-Ile-Ala-Trp-Tyr-NH2] |  | 37.8 ± 2.9% | 7.1 ± 0.3 Molar | 6.1 ± 6.9 | 6% ± 7.64
RQYFWIAWYKIASNK [SEQ ID NO: 6, Ac-Arg-Gln-Tyr-Phe-Trp-Ile-Ala-Trp-Tyr-Lys-Ile-Ala-Ser-Asn-Lys-NH2] |  | 25.3 ± 1.7% | 7.0 ± 0.3 Molar |  | 
RQYFWIAWYKLANSA [SEQ ID NO: 2, Ac-Arg-Gln-Tyr-Phe-Trp-Ile-Ala-Trp-Tyr-Lys-Leu-Ala-Asn-Ser-Ala-NH2] | effective | 40.4 ± 2.6% | 6.9 ± 0.2 Molar |  | 
WIAWYKL [SEQ ID NO: 23, Ac-Trp-Ile-Ala-Trp-Tyr-Lys-Leu-NH2] |  | 35.5 ± 2.3% | 7.5 ± 0.3 Molar | 6.1 ± 6.2 | 4% ± 6.07
YFWIAWYKLAN [SEQ ID NO: 18, Ac-Tyr-Phe-Trp-Ile-Ala-Trp-Tyr-Lys-Leu-Ala-Asn-NH2] |  | 38.0 ± 2.3% | 7.2 ± 0.3 Molar | 6.5 ± 9.3 | 18% ± 9.12
